Assay results as given in paper PMC7281072 (Cancers, 2020).

Key:
[1] = tested on: pERK1,2; assay: Western immunoblotting densitometry, pERK1,2, OVCAR-3 cells; assay type: cell-based, human; settings: 25 μM; for ratio [pERK1+pERK2]/[GAPDH] band intensity: OVCAR-3 cells; for ratio [pERK1+pERK2]/[GAPDH] band intensity, single blot (panel A): panel A upper set, cell line not given
[2] = tested on: AKT1,2 phosphorylation; assay: AKT phosphorylation ELISA, OVCAR-3 cells; assay type: cell-based, human; settings: for Vmax ± SE, pAKT 1/2 inhibition: Michaelis Menten model; for IC50: Homo sapiens, read-out: IC50, pAKT 1/2 inhibition
[3] = tested on: ERK1,2 phosphorylation; assay: ERK1/2 phosphorylation ELISA, UWB1.289 cells; assay type: cell-based, human; settings: for Vmax ± SE, pERK 1/2 inhibition: Michaelis Menten model; for IC50: Homo sapiens, read-out: IC50, pERK 1/2 inhibition
[4] = tested on: pAKT; assay: Western immunoblotting densitometry, pAKT, OVCAR-3 cells; assay type: cell-based, human; settings: 25 μM; for ratio [pAKT]/[GAPDH] band intensity: OVCAR-3 cells; for ratio [pAKT]/[GAPDH] band intensity, single blot (panel A): panel A upper set, cell line not given, control ratio 1.21
[5] = tested on: OVCAR-5 cancer cell line
[6] = tested on: AKT1,2 phosphorylation; assay: AKT phosphorylation ELISA, UWB1.289+BRCA1 cells; assay type: cell-based, human; design: Vmax ± SE, pAKT 1/2 inhibition: unit not given beside the values; settings: for Vmax ± SE, pAKT 1/2 inhibition: Michaelis Menten model; for IC50: Homo sapiens, read-out: IC50, pAKT 1/2 inhibition
[7] = tested on: AKT1,2 phosphorylation; assay: AKT phosphorylation ELISA, OVCAR-5 cells; assay type: cell-based, human; settings: for Vmax ± SE, pAKT 1/2 inhibition: Michaelis Menten model; for IC50: Homo sapiens, read-out: IC50, pAKT 1/2 inhibition
[8] = tested on: ERK1,2 phosphorylation; assay: ERK1/2 phosphorylation ELISA, OVCAR-5 cells; assay type: cell-based, human; settings: for Vmax ± SE, pERK 1/2 inhibition: Michaelis Menten model; for IC50: Homo sapiens, read-out: IC50, pERK 1/2 inhibition
[9] = tested on: UWB1.289+BRCA1 cancer cell line; assay: cells; settings: Homo sapiens, 48 h
[10] = tested on: OVCAR-5 cancer cell line; assay: cells; settings: Homo sapiens, OVCAR-5, 48 h
[11] = tested on: UWB1.289 cancer cell line
[12] = tested on: UWB1.289+BRCA1 cancer cell line
[13] = read-out: GI50 (50% Growth Inhibition)
[14] = read-out: IC50 (cytotoxic effect)

Q: For `C[C@]12CC[C@@H]3c4ccc(OC(=O)CCOc5ccc(N(CCCl)CCCl)cc5)cc4CC[C@H]3[C@@H]1CCC(=O)N2` [ENGA-L08E, 12a-methyl-2-oxo-1,2,3,4,4a,4b,5,6,10b,11,12,12a-dodecahydronaphtho[2,1-f]quinolin-8-yl 3-(4-(bis (2-chloroethyl)amino)phenoxy) propanoate], which “ratio [pERK1+pERK2]/[GAPDH] band intensity” value ([1]; 30min, control ratio 1.71) is on record?
A: 1.01

Q: What about the “ratio [pERK1+pERK2]/[GAPDH] band intensity” value ([1]; 1h, control ratio 1.65) of the same molecule?
A: 0.94

Q: What about the “ratio [pERK1+pERK2]/[GAPDH] band intensity” value ([1]; 3h, control ratio 1.99) of the same molecule?
A: 0.83

Q: What about the “ratio [pERK1+pERK2]/[GAPDH] band intensity” value ([1]; 6h, control ratio 1.85) of the same molecule?
A: 0.76

Q: What about the “ratio [pERK1+pERK2]/[GAPDH] band intensity” value ([1]; 12h, control ratio 1.82) of the same molecule?
A: 0.76

Q: What about the “ratio [pERK1+pERK2]/[GAPDH] band intensity” value ([1]; 24h, control ratio 1.92) of the same molecule?
A: 0.84

Q: And the “ratio [pERK1+pERK2]/[GAPDH] band intensity, single blot (panel A)” value ([1]; 1h, control ratio 1.85)?
A: 0.51

Q: What about the “ratio [pERK1+pERK2]/[GAPDH] band intensity, single blot (panel A)” value ([1]; 3h, control ratio 1.85) of the same molecule?
A: 0.28

Q: What about the “Vmax ± SE, pAKT 1/2 inhibition” value ([2]; 15 min) of the same molecule?
A: 65.97 ± 1.60

Q: What about the “Vmax ± SE, pAKT 1/2 inhibition” value ([2]; 30 min) of the same molecule?
A: 75.64 ± 0.99

Q: And the “Vmax ± SE, pAKT 1/2 inhibition” value ([2]; 60 min)?
A: 78.39 ± 4.18

Q: And the IC50 ([2]; 0.25 h, 15 min)?
A: > 50 µM

Q: And the IC50 ([2]; 0.5 h, 30 min)?
A: 12.8 µM

Q: What about the IC50 ([2]; 1 h, 60 min) of the same molecule?
A: 14.2 µM

Q: And the “Vmax ± SE, pERK 1/2 inhibition” value ([3]; 15 min)?
A: 73.97 ± 1.64

Q: And the “Vmax ± SE, pERK 1/2 inhibition” value ([3]; 60 min)?
A: 88.83 ± 2.13

Q: And the IC50 ([3]; UWB1289, 0.25 h, 15 min)?
A: 7.02 µM

Q: What about the IC50 ([3]; UWB1289, 0.5 h, 30 min) of the same molecule?
A: 4.25 µM

Q: What about the IC50 ([3]; UWB1289, 1 h, 60 min) of the same molecule?
A: 3.67 µM

Q: What about the “ratio [pAKT]/[GAPDH] band intensity” value ([4]; 30min, control ratio 1.23) of the same molecule?
A: 0.93

Q: What about the “ratio [pAKT]/[GAPDH] band intensity” value ([4]; 1h, control ratio 1.14) of the same molecule?
A: 0.60

Q: What about the “ratio [pAKT]/[GAPDH] band intensity” value ([4]; 3h, control ratio 1.27) of the same molecule?
A: 0.52

Q: What about the “ratio [pAKT]/[GAPDH] band intensity” value ([4]; 6h, control ratio 1.26) of the same molecule?
A: 0.47

Q: What about the “ratio [pAKT]/[GAPDH] band intensity” value ([4]; 12h, control ratio 1.18) of the same molecule?
A: 0.48

Q: And the “ratio [pAKT]/[GAPDH] band intensity” value ([4]; 24h, control ratio 1.29)?
A: 0.54

Q: And the “ratio [pAKT]/[GAPDH] band intensity, single blot (panel A)” value ([4]; 1h)?
A: 0.40

Q: What about the “ratio [pAKT]/[GAPDH] band intensity, single blot (panel A)” value ([4]; 3h) of the same molecule?
A: 0.34

Q: And the “TGI (Total Growth Inhibition)” value [5]?
A: 60 ± 2.7 μΜ

Q: And the “Vmax ± SE, pAKT 1/2 inhibition” value ([6]; 15 min)?
A: 57.59 ± 1.42

Q: And the “Vmax ± SE, pAKT 1/2 inhibition” value ([6]; 30 min)?
A: 60.90 ± 3.82

Q: What about the “Vmax ± SE, pAKT 1/2 inhibition” value ([6]; 60 min) of the same molecule?
A: 63.84 ± 5.49

Q: What about the IC50 ([6]; 0.25 h, 15 min) of the same molecule?
A: 36.2 µM

Q: And the IC50 ([6]; 0.5 h, 30 min)?
A: 26.6 µM

Q: And the IC50 ([6]; 1 h, 60 min)?
A: 19.4 µM

Q: What about the “Vmax ± SE, pAKT 1/2 inhibition” value ([7]; 15 min) of the same molecule?
A: 60.45 ± 3.65

Q: What about the “Vmax ± SE, pAKT 1/2 inhibition” value ([7]; 30 min) of the same molecule?
A: 61.17 ± 0.62

Q: And the “Vmax ± SE, pAKT 1/2 inhibition” value ([7]; 60 min)?
A: 61.47 ± 2.03

Q: And the IC50 ([7]; 0.25 h, 15 min)?
A: > 50 µM

Q: What about the IC50 ([7]; 0.5 h, 30 min) of the same molecule?
A: 34.2 µM

Q: And the IC50 ([7]; 1 h, 60 min)?
A: 28.3 µM

Q: What about the “Vmax ± SE, pERK 1/2 inhibition” value ([8]; 15 min) of the same molecule?
A: 63.85 ± 3.62

Q: What about the “Vmax ± SE, pERK 1/2 inhibition” value ([8]; 30 min) of the same molecule?
A: 67.94 ± 4.54

Q: What about the “Vmax ± SE, pERK 1/2 inhibition” value ([8]; 60 min) of the same molecule?
A: 69.19 ± 2.95

Q: What about the IC50 ([8]; 0.25 h, 15 min) of the same molecule?
A: 32.4 µM

Q: What about the IC50 ([8]; 0.5 h, 30 min) of the same molecule?
A: 17 µM

Q: What about the IC50 ([8]; 1 h, 60 min) of the same molecule?
A: 10.9 µM

Q: What about the GI50 [9, 13] of the same molecule?
A: 18 ± 1 µM

Q: What about the IC50 [9, 14] of the same molecule?
A: 88 ± 8.1 µM

Q: And the GI50 [10, 13]?
A: 11 ± 0.6 µM

Q: And the IC50 [10, 14]?
A: 92 ± 8.4 µM

Q: What about the “TGI (Total Growth Inhibition)” value [11] of the same molecule?
A: 20 ± 1.5 μΜ

Q: What about the “TGI (Total Growth Inhibition)” value [12] of the same molecule?
A: 76 ± 7.2 μΜ
